Experimental data taken from article PMC8163091, “Production of novel pladienolide analogues through native expression of a pathway-specific activator” (Chemical Science, 2020).
Values after ≈ are worked out from the molar mass of the structure shown.

Experiments:
Format in all cases: cell-based
[1] = test system: NS-1 mouse myeloma ATCC TIB-18; assay: Antitumour resazurin assay, NS-1 mouse myeloma cells; conditions: 96 h; for IC50: Mus musculus, read-out: IC50 ± 95% confidence interval, NS-1; for MIC, NS-1: NS-1 mouse myeloma ATCC TIB-18
Method: (§1) To ascertain the bioactivity of all compounds the inhibitory concentrations of 1–6 were measured against bacteria (Bacillus subtilis ATCC 6633 and Staphylococcus aureus ATCC 25923), yeasts (Candida albicans ATCC 10231 and Saccharomyces cerevisiae ATCC 9763), a protozoan (Tritrichomonas foetus), and mammalian cell lines (NS-1 mouse myeloma ATCC TIB-18 and NFF human neonatal foreskin fibroblast cells ATCC PCS-201). […] Given this selectivity, the IC50 values for each compound 1–5versus NS-1, NFF and DU145 human prostate cancer cell ATCC HTB-81 were ascertained by a resazurin-based assay (Table 2). […]
(§2) 1.7. Assays for Biological Activity
(§3) Purified metabolites (1 – 6) were dissolved in DMSO to provide stock solutions (1,000 µg/mL or 40 µg/mL). Bioassays were carried out in 96-well microtitre plates containing two-fold serial dilutions to yield ranges of 10 to 0.005 µg mL-1 or 0.4 to 0.0002 µg mL-1, in 1% DMSO. […]
(§4) To assay antitumour activity, NS -1 ATCC TIB-18 mouse myeloma , DU145 prostate cancer cells (ATCC HTB-81), and NFF (ATCC PCS -201) human neonatal foreskin fibroblast cells were each inoculated in 96 -well microtitre plates (190 µL) at 50,000 cells mL-1 in DMEM (Dulbecco's Modified Eagle Medium + 10% v/v fetal bovine serum (FBS) + 1% v/v penicillin/streptomycin (10,000U mL-1/ 10,000 µg mL-1, Life Technologies Cat. No. 15140122), together with resazurin (250 µg/mL; 10 µL) and incubated at 37 °C (5% CO2). The plates were incubated for 96 h. Absorbance was measured using a Spectromax plate reader (Molecular Devices) at 605 nm for % inhibition, and IC50 values determined.

[2] = test system: NFF human neonatal foreskin fibroblast cells ATCC PCS-201; assay: Resazurin assay, NFF human neonatal foreskin fibroblast cells; conditions: for IC50: Homo sapiens, Fibroblast, read-out: IC50 ± 95% confidence interval, NFF; for IC50 / MIC, NFF: 96 h; for MIC, NFF: NFF human neonatal foreskin fibroblast ATCC PCS-201
Method: as §1, §2, §3, §4

[3] = test system: DU145 human prostate cancer cell ATCC HTB-81; assay: Antitumour resazurin assay, DU145 prostate cancer cells; conditions: DU-145, 96 h, read-out: IC50 ± 95% confidence interval, DU145
Method: as §1, §2, §3, §4

[4] = test system: Bacillus subtilis ATCC 6633; assay: Antibacterial assay, B. subtilis; conditions: ATCC6633, 28 °C, 48 h, read visually
Method: as §1, §2
as §3, with “DMSO. Wells containing no test compound as a reference for no inhibition, and uninoculated wells were used as a reference for complete” for “DMSO.”
(§5) Antibacterial assays were carried out using Bacillus subtilis ATCC 6633 and Staphylococcus aureus ATCC 25923 as indicative species for Gram-positive activity. A bacterial suspension (50 mL in 250 mL flask) was prepared in nutrient broth media (5.0 g L-1 bacteriological peptone (Bacto), 5.0 g L-1 NaCl (Chem-supply), 2.0 g L-1 yeast extract (Bacto), 1.0 g L-1 beef extract (Bacto)) by cultivation for 24 h at 250 rpm, 28 °C. The suspension was diluted to an absorbance of 0.01 absorbance units per mL [OD400 nm] and aliquots (10 µL) were added to the wells of a 96 -well microtitre plate containing the test compounds dispersed in nutrient broth with resazurin (12.5 µg mL-1). The plates were incubated at 28 °C for 48 h, during which time the positive control wells change colour from a blue to light pink colour. MICs were determined visually. […]

[5] = test system: Staphylococcus aureus ATCC 25923; assay: Antibacterial assay, S. aureus; conditions: ATCC25923, 28 °C, 48 h, read visually
Method: as §1, §2
as §3, with “DMSO. Wells containing no test compound as a reference for no inhibition, and uninoculated wells were used as a reference for complete” for “DMSO.”
as §5

[6] = test system: Candida albicans ATCC 10231; assay: Antifungal assay, C. albicans; conditions: ATCC10231, 24 °C, 48 h, read visually
Method: as §1, §2, §3
(§6) Antifungal assays were carried out using Candida albicans ATCC 10231 and Saccharomyces cerevisiae ATCC 9763 as indicative species for antifungal activity. A yeast suspension (50 mL in 250 mL flask) was prepared in malt extract broth (1.0 g L-1 bacteriological peptone (Bacto), 20.0 g L-1 malt extract […]
(§7) (Bacto), 20 g L-1 glucose (Country Brewers)) by cultivation for 24 h at 250 rpm, 24 °C. The suspension was diluted to an absorbance of 0.005 and 0.03 absorbance units [ OD400] per mL for C. albicans and S. cerevisiae, respectively. Aliquots (20 µL and 30 µL) of C. albicans and S. cerevisiae, respectively were applied to the wells of a 96-well microtitre plate, which contained the test compounds dispersed in malt extract broth containing bromocresol green (50 µg mL-1). The plates were incubated at 24 °C for 48 h during which time the positive control wells change colour from a blue to yellow colour. MIC end points were determined visually. […]
(§8) To assay antitumour activity, NS -1 ATCC TIB-18 mouse myeloma , DU145 prostate cancer cells (ATCC HTB-81), and NFF (ATCC PCS -201) human neonatal foreskin fibroblast cells were each

[7] = test system: Saccharomyces cerevisiae ATCC 9763; assay: Antifungal assay, S. cerevisiae; conditions: ATCC9763, 24 °C, 48 h, read visually
Method: as §1, §2, §3, §6, §7, §8

[8] = test system: mammalian cell lines; assay: Inhibitory activity against mammalian cell lines (summary across NS-1, DU145, NFF)
Method: To ascertain the bioactivity of all compounds the inhibitory concentrations of 1–6 were measured against bacteria (Bacillus subtilis ATCC 6633 and Staphylococcus aureus ATCC 25923), yeasts (Candida albicans ATCC 10231 and Saccharomyces cerevisiae ATCC 9763), a protozoan (Tritrichomonas foetus), and mammalian cell lines (NS-1 mouse myeloma ATCC TIB-18 and NFF human neonatal foreskin fibroblast cells ATCC PCS-201). […] Given this selectivity, the IC50 values for each compound 1–5versus NS-1, NFF and DU145 human prostate cancer cell ATCC HTB-81 were ascertained by a resazurin-based assay (Table 2).
as §7
Cat. No. 15140122), 10% v/v new born calf serum (NBCS), Life Technologies). […] T. foetus proliferation was measured at 72 h . […]

| SMILES | IC50 [1] [nM] | MIC, NS-1 [1] [µg/mL] | IC50 [2] [nM] | MIC, NFF [2] [µg/mL] | IC50 [3] [nM] | MIC [4] [µg/mL] | MIC [5] [µg/mL] | MIC [6] [µg/mL] | MIC [7] [µg/mL] | Fold less effective than 1 ([8]; depending on the cell line) [fold] | IC50 values, times greater than those of 1 ([8]; across cell lines) | Activity, times lower than 1 against NFF ([2]; NFF) [times] |
| --- | --- | --- | --- | --- | --- | --- | --- | --- | --- | --- | --- | --- |
| CC[C@H](O)[C@@H](C)[C@H]1O[C@@H]1C[C@H](C)/C=C/C=C(\C)[C@H]1OC(=O)C[C@H](O)CC[C@@](C)(O)[C@@H](OC(C)=O)/C=C/[C@@H]1C [Compound 1, pladienolide B] | 5.6 ± 0.6 | 0.001 (≈ 0.00186 µM) | 13 ± 4.1 | 0.013 (≈ 0.0242 µM) | 7.5 ± 3.5 | > 10 | > 10 | > 20 | > 20 | – | – | – |
| CC[C@H](O)[C@@H](C)[C@H]1O[C@@H]1C[C@H](C)/C=C/C=C(\C)[C@H]1OC(=O)C[C@H](O)CC[C@H](C)[C@@H](OC(C)=O)/C=C/[C@@H]1C [Compound 2, 6-deoxypladienolide B] | 40.3 ± 3.7 | 0.001 (≈ 0.00192 µM) | 27 ± 14 | 0.04 (≈ 0.0768 µM) | 9.6 ± 5.8 | > 10 | > 10 | > 20 | > 20 | ≤ 8 | – | – |
| CC[C@H](O)[C@@H](C)/C=C/C[C@H](C)/C=C/C=C(\C)[C@H]1OC(=O)C[C@H](O)CC[C@@](C)(O)[C@@H](OC(C)=O)/C=C/[C@@H]1C [Compound 3, Δ18,19-pladienolide B] | > 770 | 0.05 (≈ 0.096 µM) | 319 ± 61 | 0.6 (≈ 1.15 µM) | 96 ± 27 | > 10 | > 10 | > 20 | > 20 | – | up to twenty-five | – |
| CC[C@H](O)[C@@H](C)/C=C/C[C@H](C)/C=C/C=C(\C)[C@H]1OC(=O)C[C@H](O)CC[C@H](C)[C@@H](OC(C)=O)/C=C/[C@@H]1C [Compound 4, Δ18,19-6-deoxypladienolide B] | > 790 | 0.1 (≈ 0.198 µM) | > 790 | 0.4 (≈ 0.793 µM) | 264 ± 79 | > 10 | > 10 | > 20 | > 20 | – | – | – |
| CC[C@H](O)[C@@H](C)/C=C/C[C@H](C)/C=C/C=C(\C)[C@H]1OC(=O)C[C@H](O)CC[C@H](C)[C@@H](O)/C=C/[C@@H]1C [Compound 5, Δ18,19-6-deoxy-7-desacetylpladienolide B] | – | 0.63 (≈ 1.36 µM) | 8100 ± 1800 | 10 (≈ 21.6 µM) | – | > 10 | > 10 | > 20 | > 20 | – | – | > 600 |
| CC[C@@H]1O[C@@H](C[C@H](C)/C=C/C=C(\C)[C@H]2OC(=O)C[C@H](O)CC[C@@](C)(O)[C@@H](OC(C)=O)/C=C/[C@@H]2C)[C@H](O)[C@@H]1C [Compound 6, isopladienolide B] | – | 0.08 (≈ 0.149 µM) | – | 1.25 (≈ 2.33 µM) | – | > 10 | > 10 | > 20 | > 20 | – | – | – |
